From ChEMBL document CHEMBL4431295 (Medchemcomm, 2016)
The source made the active and inactive calls. No cut-off for these calls is given here.

Key:
[1] = tested on: SK-N-SH; assay: Induction of apoptosis in human SK-N-SH cells assessed as necrotic cells at 5 uM by Annexin V-FITC/propidium iodide staining based flow cytometry (reference value: 0.3%); format: functional
[2] = tested on: SK-N-SH; assay: Cell cycle arrest in human SK-N-SH cells assessed as G2/M phase accumulation at 10 uM after 24 hrs by FITC/propidium iodide staining based flow cytometry (reference value: 6.03%); format: functional
[3] = tested on: SK-N-SH; assay: Induction of apoptosis in human SK-N-SH cells assessed as chromatin shrinkage at 5 to 10 uM after 24 hrs by Hoechst 33258 staining based fluorescence microscopic analysis; format: functional, cell-based
[4] = tested on: SK-N-SH; assay: Cell cycle arrest in human SK-N-SH cells assessed as G2/M phase accumulation at 2.5 uM after 24 hrs by FITC/propidium iodide staining based flow cytometry (reference value: 6.03%); format: functional
[5] = tested on: SK-N-SH; assay: Induction of apoptosis in human SK-N-SH cells assessed as early apoptotic cells at 5 uM by Annexin V-FITC/propidium iodide staining based flow cytometry (reference value: 7.1%); format: functional
[6] = tested on: SK-N-SH; assay: Induction of apoptosis in human SK-N-SH cells assessed as early apoptotic cells at 10 uM by Annexin V-FITC/propidium iodide staining based flow cytometry (reference value: 7.1%); format: functional
[7] = tested on: SK-N-SH; assay: Induction of apoptosis in human SK-N-SH cells assessed as necrotic cells at 1.25 uM by Annexin V-FITC/propidium iodide staining based flow cytometry (reference value: 0.3%); format: functional
[8] = tested on: SK-N-SH; assay: Induction of apoptosis in human SK-N-SH cells assessed as live cells at 2.5 uM by Annexin V-FITC/propidium iodide staining based flow cytometry (reference value: 90.9%); format: functional
[9] = tested on: SK-N-SH; assay: Cell cycle arrest in human SK-N-SH cells assessed as G1/G0 phase accumulation at 10 uM after 24 hrs by FITC/propidium iodide staining based flow cytometry (reference value: 57.72%); format: functional
[10] = tested on: SK-N-SH; assay: Induction of apoptosis in human SK-N-SH cells assessed as early apoptotic cells at 2.5 uM by Annexin V-FITC/propidium iodide staining based flow cytometry (reference value: 7.1%); format: functional
[11] = tested on: SK-N-SH; assay: Induction of apoptosis in human SK-N-SH cells assessed as formation of apoptotic bodies at 5 to 10 uM after 24 hrs by Hoechst 33258 staining based fluorescence microscopic analysis; format: functional, cell-based
[12] = tested on: SK-N-SH; assay: Induction of apoptosis in human SK-N-SH cells assessed as necrotic cells at 2.5 uM by Annexin V-FITC/propidium iodide staining based flow cytometry (reference value: 0.3%); format: functional
[13] = tested on: SK-N-SH; assay: Cell cycle arrest in human SK-N-SH cells assessed as G1/G0 phase accumulation at 2.5 uM after 24 hrs by FITC/propidium iodide staining based flow cytometry (reference value: 57.72%); format: functional
[14] = tested on: SK-N-SH; assay: Induction of apoptosis in human SK-N-SH cells assessed as late apoptotic cells at 10 uM by Annexin V-FITC/propidium iodide staining based flow cytometry (reference value: 1.7%); format: functional
[15] = tested on: SK-N-SH; assay: Induction of apoptosis in human SK-N-SH cells assessed as necrotic cells at 20 uM by Annexin V-FITC/propidium iodide staining based flow cytometry (reference value: 0.3%); format: functional
[16] = tested on: SK-N-SH; assay: Cell cycle arrest in human SK-N-SH cells assessed as S phase accumulation at 10 uM after 24 hrs by FITC/propidium iodide staining based flow cytometry (reference value: 37.4%); format: functional
[17] = tested on: SK-N-SH; assay: Cell cycle arrest in human SK-N-SH cells assessed as S phase accumulation at 5 uM after 24 hrs by FITC/propidium iodide staining based flow cytometry (reference value: 37.4%); format: functional
[18] = tested on: SK-N-SH; assay: Induction of apoptosis in human SK-N-SH cells assessed as late apoptotic cells at 1.25 uM by Annexin V-FITC/propidium iodide staining based flow cytometry (reference value: 1.7%); format: functional
[19] = tested on: SK-N-SH; assay: Antiproliferative activity against human SK-N-SH cells after 72 hrs by MTT assay; format: functional, cell-based
[20] = tested on: SK-N-SH; assay: Induction of apoptosis in human SK-N-SH cells assessed as cell rounding at 5 to 10 uM after 24 hrs by Hoechst 33258 staining based fluorescence microscopic analysis; format: functional
[21] = tested on: SK-N-SH; assay: Induction of apoptosis in human SK-N-SH cells assessed as early apoptotic cells at 1.25 uM by Annexin V-FITC/propidium iodide staining based flow cytometry (reference value: 7.1%); format: functional
[22] = tested on: SK-N-SH; assay: Cell cycle arrest in human SK-N-SH cells assessed as S phase accumulation at 2.5 uM after 24 hrs by FITC/propidium iodide staining based flow cytometry (reference value: 37.4%); format: functional
[23] = tested on: SK-N-SH; assay: Induction of apoptosis in human SK-N-SH cells assessed as live cells at 5 uM by Annexin V-FITC/propidium iodide staining based flow cytometry (reference value: 90.9%); format: functional
[24] = tested on: SK-N-SH; assay: Induction of apoptosis in human SK-N-SH cells assessed as late apoptotic cells at 2.5 uM by Annexin V-FITC/propidium iodide staining based flow cytometry (reference value: 1.7%); format: functional
[25] = tested on: SK-N-SH; assay: Induction of apoptosis in human SK-N-SH cells assessed as live cells at 1.25 uM by Annexin V-FITC/propidium iodide staining based flow cytometry (reference value: 90.9%); format: functional
[26] = tested on: SK-N-SH; assay: Induction of apoptosis in human SK-N-SH cells assessed as late apoptotic cells at 20 uM by Annexin V-FITC/propidium iodide staining based flow cytometry (reference value: 1.7%); format: functional
[27] = tested on: GES1; assay: Cytotoxicity against human GES-1 cells assessed as cell growth inhibition after 72 hrs by MTT assay; format: cell-based; conditions: GES1, 72 h
[28] = tested on: HepG2; assay: Antiproliferative activity against human HepG2 cells after 72 hrs by MTT assay; format: functional, cell-based; conditions: HepG2, 72 h
[29] = tested on: SK-N-SH; assay: Induction of apoptosis in human SK-N-SH cells assessed as early apoptotic cells at 20 uM by Annexin V-FITC/propidium iodide staining based flow cytometry (reference value: 7.1%); format: functional
[30] = tested on: SK-N-SH; assay: Induction of apoptosis in human SK-N-SH cells assessed as late apoptotic cells at 5 uM by Annexin V-FITC/propidium iodide staining based flow cytometry (reference value: 1.7%); format: functional
[31] = tested on: SK-N-SH; assay: Induction of apoptosis in human SK-N-SH cells assessed as increase in p53 expression at 5 to 10 uM after 24 hrs by Western blot analysis; format: functional, cell-based
[32] = tested on: MGC-803; assay: Antiproliferative activity against human MGC803 cells after 72 hrs by MTT assay; format: functional, cell-based; conditions: MGC-803, 72 h
[33] = tested on: SK-N-SH; assay: Cell cycle arrest in human SK-N-SH cells assessed as G1/G0 phase accumulation at 5 uM after 24 hrs by FITC/propidium iodide staining based flow cytometry (reference value: 57.72%); format: functional
[34] = tested on: SK-N-SH; assay: Induction of apoptosis in human SK-N-SH cells assessed as live cells at 20 uM by Annexin V-FITC/propidium iodide staining based flow cytometry (reference value: 90.9%); format: functional
[35] = tested on: SK-N-SH; assay: Induction of apoptosis in human SK-N-SH cells assessed as live cells at 10 uM by Annexin V-FITC/propidium iodide staining based flow cytometry (reference value: 90.9%); format: functional
[36] = tested on: SK-N-SH; assay: Induction of apoptosis in human SK-N-SH cells assessed as increase in caspase-3 expression at 5 to 10 uM after 24 hrs by Western blot analysis; format: functional, cell-based
[37] = tested on: SK-N-SH; assay: Cell cycle arrest in human SK-N-SH cells assessed as G2/M phase accumulation at 5 uM after 24 hrs by FITC/propidium iodide staining based flow cytometry (reference value: 6.03%); format: functional
[38] = tested on: SK-N-SH; assay: Cell cycle arrest in human SK-N-SH cells assessed as G1/G0 phase accumulation after 24 hrs by FITC/propidium iodide staining based flow cytometry; format: functional
[39] = tested on: SK-N-SH; assay: Induction of apoptosis in human SK-N-SH cells assessed as decrease in pro-caspase-3 expression at 5 to 10 uM after 24 hrs by Western blot analysis; format: functional, cell-based
[40] = tested on: SK-N-SH; assay: Induction of apoptosis in human SK-N-SH cells assessed as necrotic cells at 10 uM by Annexin V-FITC/propidium iodide staining based flow cytometry (reference value: 0.3%); format: functional

SMILES: COc1cccc(Cn2cc(CNc3ccc(C(=O)/C=C/c4cccnc4)cc3)nn2)c1
- Activity [1]: 0.8%
- Activity [2]: 7.17%
- Activity [3]: Active
- Activity [4]: 18.71%
- Activity [5]: 9.6%
- Activity [6]: 31.9%
- Activity [7]: 0.3%
- Activity [8]: 91.4%
- Activity [9]: 81.8%
- Activity [10]: 5.8%
- Activity [11]: Active
- Activity [12]: 0.7%
- Activity [13]: 67.06%
- Activity [14]: 18.8%
- Activity [15]: 1.6%
- Activity [16]: 10.34%
- Activity [17]: 15.65%
- Activity [18]: 1.2%
- IC50 [19]: 1530 nM
- Activity [20]: Active
- Activity [21]: 5.7%
- Activity [22]: 19.11%
- Activity [23]: 87.1%
- Activity [24]: 2.1%
- Activity [25]: 92.9%
- Activity [26]: 57.7%
- IC50 [27]: 31100 nM
- IC50 [28]: 2210 nM
- Activity [29]: 39.7%
- Activity [30]: 2.5%
- Activity [31]: Active
- IC50 [32]: 2730 nM
- Activity [33]: 71.27%
- Activity [34]: 1%
- Activity [35]: 48.8%
- Activity [36]: Active
- Activity [37]: 14.2%
- Activity [38]: Dose-dependent effect
- Activity [39]: Active
- Activity [40]: 0.5%
